Laboratory results published in patent USRE39420E1, “1,2-Diphenylpyrrole derivatives, their preparation and their therapeutic uses” (Sankyo Company, Limited, priority 1996, dated 2006).

Key:
[1] = system: Carrageenan-induced Paw Edema in rats; experiment: Carrageenan-induced paw edema test; format: in vivo, Wistar-Imamichi rats; conditions: Rattus norvegicus, oral, 3 hours after carrageenan, read-out: Inhibition Rate (%)
Description: The same test compounds were subjected to the test as those in the Randall-Selitto test of Experiment 3. Wistar-Imamichi rats (males, 6 week old, body weights: 110-120 g) were used in this test.
The method of Winter, et al. [Proc. Soc. Exp. Biol. Med. 111, 544-547, (1962)] was slightly modified to perform the test [Sankyo Annual Research Report 39, 77-111, (1989)]. The rats were fasted for 16 hours prior to use. Inflammatory edema was induced by the subcutaneous injection of 0.05 ml of a 1% carrageenan (Viscarin 402) solution into the right hind paw of the animal. The test compounds were administered orally 30 minutes before injection of carrageenan. The volume of the right hind foot was measured with a Plethysmometer (Trade mark) (Ugo-Basile Co.) just before administration of the test compound and 3 hours after injection of carrageenan to determine the edema intensity [(right foot volume after 3 hours/right foot volume before injection)-1].

[2] = system: yeast-inflamed pain in rats; experiment: Analgesic effect on yeast-inflamed pain in rats (Randall-Selitto method); format: in vivo, Wistar-Imamichi rats; conditions: Rattus norvegicus, oral, pain threshold 0.5, 1 and 2 hours after administration, read-out: Efficacy Rate (No. of animals in which drug was effective/No. of animals used in test) (converted)
Description: The compound was suspended in 0.5%tragacanth and administered orally at a volume of 5 ml/kg. The control group was administered with 0.5% tragacanth only as a vehicle.
Wistar-Imamichi rats (males, 5 week old, body weights: 80-100 g) were used in this test.
The test was conducted in accordance with the method of Winter and Flataker [J. Pharmacol. Exp. Ther. 150, 165-171, (1965)], which is a modification of the original method of Randall and Selitto [Arch. Int. Pharmacodyn. Ther. 111, 405-419, (1957)]. The rats were fasted for 16 hours prior to use. Inflammation was induced by subcutaneous injection of 0.1 ml of a suspension of 20% beer yeast (Sigma) into the right hind footpad of the animal. After 4.5 hours, increasing pressure was applied to the inflamed footpad at a constant speed using an Analgesy meter (Trade mark) (Ugo-Basile Co.).
First the average of pain threshold values at each time point (0.5, 1, and 2 hr) was calculated in a control group. If a pain threshold value exceeded 2 times the control average value at the same time point even once in the drug-treated groups, then the animal was considered to indicate efficacy. Efficacy rates of the drug were estimated by the evaluation method of Blake [J. Pharm. Pharm. 19, 367-373, (1967)].

gastric mucosa = experiment: Irritative effect on gastric mucosa; format: in vivo, Wistar rats; conditions: oral; dose producing 50% incidence of gastric ulcers, 3.5 hours after dosing
Description: Experiments were performed according to the method described by Jahn and Adrian [Arzneim.-Forsch. 19, 36, (1969)]. Male Wistar rats weighing approximately 120 g were fasted for 16 hours before the experiment. The drugs were administered orally to rats as described in Experiment 3. Three and the half hours after dosing, the animals were killed under ether-anesthesia and the stomachs were placed into 1% of formalin. The stomach was opened by cutting along the greater curvature and the number and length of lesions were counted under a microscope (6.3×10). The ulcerogenicity in each animal was assessed according to Hitchens et. al. [Pharmacologist 9, 242, (1967)]. Incidence was determined as the rate of rats with 4 or more ulcers of more than 0.5 mm length, and UD50's (doses producing 50% incidence) were calculated from the incidence and the dose by probit (=probability unit) method.

SMILES | inhibition in vivo at 50 mg/kg [1] | responders at 12.5 mg/kg [2] | UD50 (gastric mucosa)
Cc1cc(-c2ccc(S(N)(=O)=O)cc2)n(-c2ccc([S+](C)[O-])cc2)c1 (centres unmarked) [Example 96, 4-Methyl-1-(4-methylsulfinylphenyl)-2-(4-sulfamoylphenyl)pyrrole] | 60% | – | –
Cc1ccc(-c2cc(C)cn2-c2ccc(S(N)(=O)=O)cc2)cc1 [Example 18, 4-Methyl-2-(4-methylphenyl)-1-(4-sulfamoylphenyl) pyrrole] | 53% | 100% | –
COc1ccc(-n2c(Br)ccc2-c2ccc(S(N)(=O)=O)cc2)cc1 [Example 98, 5-Bromo-1-(4-methoxyphenyl)-2-(4-sulfamoylphenyl)pyrrole] | 55% | – | –
CCSc1ccc(-n2cc(C)cc2-c2ccc(S(N)(=O)=O)cc2)cc1 [Example 85, 1-(4-Ethylthiophenyl)-4-methyl-2-(4-sulfamoylphenyl)pyrrole] | 73% | 100% | –
COc1ccc(-n2c(-c3ccc(S(N)(=O)=O)cc3)cc(C)c2Cl)cc1 [Example 99, 5-Chloro-1-(4-methoxyphenyl)-4-methyl-2-(4-sulfamoylphenyl)pyrrole] | 57% | – | –
Cc1ccc(-c2c(C)ccn2-c2ccc(S(N)(=O)=O)cc2)cc1 [Example 17, 3-Methyl-2-(4-methylphenyl)-1-(4-sulfamoylphenyl) pyrrole] | 67% | – | –
COc1ccc(-c2cc(C)cn2-c2ccc(S(N)(=O)=O)cc2)cc1F [Example 71, 2-(3-Fluoro-4-methoxylphenyl)-4-methyl-1-(4-sulfamoylphenyl)pyrrole] | – | 100% | >100 mg/kg
CSc1ccc(-c2c(C)ccn2-c2ccc(S(N)(=O)=O)cc2)cc1 [Example 88, 3-Methyl-2-(4-methylthiophenyl)-1-(4-sulfamoylphenyl)pyrrole] | 61% | 100% | –
Cc1cc(-c2ccc(S(N)(=O)=O)cc2)n(-c2ccc(S)cc2)c1 [Example 129, 1-(4-Mercaptophenyl)-4-methyl-2-(4-sulfamoylphenyl)pyrrole] | 62% | 100% | –
COc1ccc(-c2cc(C)cn2-c2ccc(S(N)(=O)=O)cc2)cc1Cl [Example 79, 2-(3-Chloro-4-methoxyphenyl)-4-methyl-1-(4-sulfamoylphenyl)pyrrole] | – | 100% | >100 mg/kg
CCOc1ccc(-n2c(Cl)ccc2-c2ccc(S(N)(=O)=O)cc2)cc1 [Example 100, 5-Chloro-1-(4-ethoxyphenyl)-2-(4-sulfamoylphenyl) pyrrole] | 57% | 100% | –
COc1ccc(-c2cc(C)cn2-c2ccc(S(=O)(=O)NC(C)=O)cc2)cc1 [Example 82, 1-(4-Acetylaminosulfonylphenyl)-2-(4-methoxyphenyl)-4-methylpyrrole] | 78% | 100% | >100 mg/kg
CSc1ccc(-c2cc(C)cn2-c2ccc(S(N)(=O)=O)cc2)cc1 [Example 66, 4-Methyl-2-(4-methylthiophenyl)-1-(4-sulfamoylphenyl)pyrrole] | – | 100% | >100 mg/kg
COc1ccc(-n2c(Cl)ccc2-c2ccc(S(N)(=O)=O)cc2)cc1 [Example 97, 5-Chloro-1-(4-methoxyphenyl)-2-(4-sulfamoylphenyl)pyrrole] | 63% | 100% | –
CC(=O)NS(=O)(=O)c1ccc(-n2cc(C)cc2-c2ccc(C)c(C)c2)cc1 [Example 83, 1-(4-Acetylaminosulfonylphenyl)-2-(3,4-dimethylphenyl)-4-methylpyrrole] | 70% | 100% | –
Cc1cc(-c2ccc(S(N)(=O)=O)cc2)n(-c2ccc(F)cc2F)c1 [Example 75, 1-(2,4-Difluorophenyl)-4-methyl-2-(4-sulfamoylphenyl)pyrrole] | 57% | – | –
Cc1cc(C)cc(-c2cc(C)cn2-c2ccc(S(N)(=O)=O)cc2)c1 [Example 87, 4-Methyl-2-(3,5-dimethylphenyl)-1-(4-sulfamoylphenyl)pyrrole] | – | 100% | –
CC(=O)Sc1ccc(-n2cc(C)cc2-c2ccc(S(N)(=O)=O)cc2)cc1 [Example 130, 1-(4-Acetylthiophenyl)-4-methyl-2-(4-sulfamoylphenyl)pyrrole] | 73% | 20% | –
Cc1cc(-c2ccc(Cl)c(Cl)c2)n(-c2ccc(S(N)(=O)=O)cc2)c1 [Example 70, 2-(3,4-Dichlorophenyl)-4-methyl-1-(4-sulfamoylphenyl)pyrrole] | – | – | >100 mg/kg
COc1ccc(-c2cc(C)cn2-c2ccc(S(N)(=O)=O)cc2)cc1C [Example 69, 4-Methyl-2-(4-methoxy-3-methylphenyl)-1-(4-sulfamoylphenyl)pyrrole] | 55% | 100% | >100 mg/kg
Cc1cc(-c2ccccc2)n(-c2ccc(S(N)(=O)=O)cc2)c1 [Example 77, 4-Methyl-2-phenyl-1-(4-sulfamoylphenyl)pyrrole] | – | – | >100 mg/kg
COc1ccc(-c2cccn2-c2ccc(S(N)(=O)=O)cc2)cc1 [Example 76, 2-(4-Methoxyphenyl)-1-(4-sulfamoylphenyl)pyrrole] | 56% | – | >100 mg/kg
CCc1cc(-c2ccc(OC)cc2)n(-c2ccc(S(N)(=O)=O)cc2)c1 [Example 64, 4-Ethyl-2-(4-methoxyphenyl)-1-(4-sulfamoylphenyl) pyrrole] | 60% | – | –
NS(=O)(=O)c1ccc(-c2cccn2-c2ccc(F)cc2)cc1 [Example 19, 1-(4-Fluorophenyl)-2-(4-sulfamoylphenyl)pyrrole] | 65% | 100% | –
Cc1cc(-c2ccc(S(N)(=O)=O)cc2)n(-c2ccc(C)c(C)c2)c1 [Example 86, 4-Methyl-1-(3,4-dimethylphenyl)-2-(4-sulfamoylphenyl)pyrrole] | 64% | 100% | –
CSc1ccc(-n2c(Cl)ccc2-c2ccc(S(N)(=O)=O)cc2)cc1 [Example 101, 5-Chloro-1-(4-methylthiophenyl)-2-(4-sulfamoylphenyl)pyrrole] | – | 100% | –
